Test results published in patent US20200123127A1, “REMOVAL OF SENESCENCE-ASSOCIATED MACROPHAGES” (EVERON BIOSCIENCES, INC., priority 2016, published 2020).
Like-named read-outs stand apart in the source and are kept apart here.

What was measured:
[1] = tested on: adult rat dermal fibroblasts (RDF); assay: Resazurin viability assay, senescent vs proliferating rat dermal fibroblasts; assay type: cell-based; details: Rattus norvegicus, Fibroblast, 72 hour exposure, resazurin
Description: (§1) Cytotoxicity of A1.1 analogs against bleomycin-induced senescent human NDFs and rat dermal fibroblasts (RDFs). Activity of analogs was assessed from dose-response curves against irradiation- or bleomycin-induced senescent and proliferating cells to calculate IC50s (uM). The fold difference of proliferating versus senescent cell IC50s was used to assess the level of specific anti-senescent activity of the compounds.
(§2) For generation senescent human neonatal dermal fibroblasts (NDFs) and adult rat dermal fibroblasts (RDFs), cells are treated at ˜10 ug/ml bleomycin for 3 days (for bleomycin-induced senescence) or irradiated once at 20 Gy using a gamma irradiator (Cs source), followed by at least 7 day recovery in fresh medium for induction of senescence. Senescent and non-senescent (proliferating) cells for each cell line are plated into 384-w plate, followed by 72 hour exposure to a dose titration of compounds. Viability measurements are estimated using the resazurin viability assay. Using GraphPad Prism 5, the IC50 values are calculated from the non-linear regression of log-transformed compound concentrations versus dose-response normalized to background and non-treated controls.

[2] = tested on: human neonatal dermal fibroblasts (NDF); assay: Resazurin viability assay, senescent vs proliferating/quiescent human neonatal dermal fibroblasts; assay type: cell-based; details: Homo sapiens, Fibroblast, 72 h, 72 hour exposure, resazurin
Description: FIG. 2. Compound A1.1 selectively kills senescent human neonatal dermal fibroblasts (NDF) cells in a dose- and time-dependent manner. (FIG. 2A) Normal proliferating and quiescent NDF cells, and the cells made senescent via exposure to genotoxic agents (doxorubicin, bleomycin and gamma-irradiation) were incubated with increasing concentrations of A1.1. At 72 hours post-treatment cell viability was measured via resazurin viability assay. (FIG. 2B) Compound A1.1 selectively kills senescent NDF cells in time-dependent manner discriminating between acute genotoxic stress and senescence. Acutely damaged NDF cells were irradiated with 4 Gy gamma-irradiation 24 hours before A1.1 treatment. Senescent NDF cells were treated with bleomycin or irradiated with 15 Gy and incubated for 14 days to induce senescence before treatment with A1.1. Proliferating acutely damaged and senescent NDF cell were treated with 1.875-30 μM A1.1 and viable cells were measured at 72 hours after treatment. Average and standard deviation are shown.
Normal proliferating and quiescent NDF cells, and the cells made senescent via exposure to genotoxic agents (doxorubicin, bleomycin and gamma-irradiation) were incubated with increasing concentrations of A1.1. At 72 hours post-treatment cell viability was measured via resazurin viability assay.
A1.1 selectively kills senescent human neonatal dermal fibroblasts (NDF) cells in time-dependent manner discriminating between acute genotoxic stress and senescence ([…]). Acutely damaged NDF cells were irradiated with 4 Gy gamma-irradiation 24 hours before A1.1 treatment. Senescent NDF cells were treated with bleomycin or irradiated with 15 Gy and incubated for 14 days to induce senescence before treatment with A1.1.
as §1, §2

[3] = light or radiation study, senescent RDF, irradiation-induced, read-out: IC50 RDFsen.irr
[4] = proliferating RDF, read-out: IC50 RDFprolif
[5] = senescent RDF, bleomycin-induced, read-out: IC50 RDFsen.bleo
[6] = proliferating NDF, read-out: IC50 NDFprolif
[7] = senescent NDF, bleomycin-induced, read-out: IC50 NDFsen.bleo
[8] = light or radiation study, senescent NDF, irradiation-induced, read-out: IC50 NDFsen.irr

Row | SMILES | IC50 [1, 3] [µM] | IC50 [1, 4] [µM] | IC50 [1, 5] [µM] | IC50 [2, 6] [µM] | IC50 [2, 7] [µM] | IC50 [2, 8] [µM]
1 | Cc1ccc(CNc2ncc3c(n2)CC(c2ccccc2)C/C3=N\O)cc1 (stereo not shown) [Example A2.1, 2-((4-Methylbenzyl)amino)-7-phenyl-7,8-dihydroquinazolin-5(6H)-one oxime] | < 5 | > 20 | < 5 | > 20 | < 5 | < 5
2 | COc1ccc(C2C/C(=N\O)c3c(SCc4ccccc4)sc(C(=O)NCc4ccccc4)c3C2)cc1 (stereo not shown) [Example A1.14, N-benzyl-3-(benzylthio)-4-(hydroxyimino)-6-(4-methoxyphenyl)-4,5,6,7-tetrahydrobenzo[c]thiophene-1-carboxamide] | < 2.5 | > 20 | < 2.5 | > 20 | < 5 | < 5
3 | COc1ccc(C2C/C(=N\O)c3sc(NC(=O)COc4ccc(C)cc4)nc3C2)cc1 (stereo not shown) [Example A4.1] | < 5 | < 10 | < 5 | > 5 | < 5 | < 2.5
4 | N#Cc1cc2c(nc1SCc1ccccc1)CC(c1ccccc1)C/C2=N\O (stereo not shown) [Example A3.2, 2-(Benzylthio)-5-(hydroxyimino)-7-phenyl-5,6,7,8-tetrahydroquinoline-3-carbonitrile] | < 2.5 | > 20 | < 5 | > 20 | < 15 | < 10
5 | O/N=C1\CC(c2ccccc2)Cc2nc(NCCOc3ccccc3)ncc21 (stereo not shown) [Example A2.2, 2-((2-Phenoxyethyl)amino)-7-phenyl-7,8-dihydroquinazolin-5(6H)-one oxime] | < 2.5 | > 20 | < 2.5 | > 20 | < 2.5 | < 5
6 | CCOC(=O)c1sc(SCc2ccccc2)c2c1C(c1ccc(OC)cc1)CC/C2=N\O (stereo not shown) [Example A1.9, Ethyl 3-(benzylthio)-4-(hydroxyimino)-7-(4-methoxyphenyl)-4,5,6,7-tetrahydrobenzo[c]-thiophene-1-carboxylate] | < 20 | > 20 | > 20 | > 20 | < 20 | < 20
7 | CCOC(=O)c1sc(SCc2ccccc2)c2c1CC(c1ccc(F)cc1)CC2=NO (stereo not shown) [Example A1.7, Ethyl 3-(benzylthio)-6-(4-fluorophenyl)-4-(hydroxyimino)-4,5,6,7-tetrahydrobenzo[c]-thiophene-1-carboxylate] | < 2.5 | > 5 | < 2.5 | > 10 | < 2.5 | < 2.5
8 | COc1ccc(C2C/C(=N\O)c3c(SCc4ccccc4)sc(C(=O)NCc4ccco4)c3C2)cc1 (stereo not shown) [Example A1.15, 3-(Benzylthio)-N-(furan-2-ylmethyl)-4-(hydroxyimino)-6-(4-methoxyphenyl)-4,5,6,7-tetrahydrobenzo[c]thiophene-1-carboxamide] | < 5 | > 20 | < 2.6 | > 20 | < 5 | < 5
9 | O/N=C1\CC(c2ccccc2)Cc2nc(NCc3ccccc3)sc21 (stereo not shown) [Example A4.2, 2-(Benzylamino)-5-phenyl-5,6-dihydrobenzo[d]thiazol-7(4H)-one oxime] | < 10 | > 20 | < 10 | > 20 | < 15 | < 15
10 | CC1(C)CC(=NO)c2c(SCc3ccccc3)sc(C(=O)NCc3ccccc3)c2C1 [Example A1.4, N-benzyl-3-(benzylthio)-4-(hydroxyimino)-6,6-dimethyl-4,5,6,7-tetrahydrobenzo[c]thiophene-1-carboxamide] |  |  |  | > 20 | < 10 | 
11 | COc1ccc(C2CC(=NO)c3c(SCc4ccccc4)sc(C(=O)OCc4ccccc4)c3C2)cc1 (stereo not shown) [Example A1.8, Benzyl 3-(benzylthio)-4-(hydroxyimino)-6-(4-methoxyphenyl)-4,5,6,7-tetrahydrobenzo[c]-thiophene-1-carboxylate] |  |  |  | > 20 | < 10 | 
